Measured values as given in patent US12252417B2, “Passive, gravity-driven system for treatment of an effluent in a diagnostic system” (Ventana Medical Systems, Inc., priority 2016, dated 2025).
“Also recorded” adds a separate entry of the source. Values belong to the compound of their own block, whether it stands above or below them.

Experiments:
[1] = Thermal radical initiator screening, DAB decomposition by sonication in BenchMark Reaction Buffer; conditions: for Effect on DAB decomposition with sonication: BenchMark Reaction Buffer; for Sonication time after which no DAB monomer was detectable: DAB 68.1 mg/L in BenchMark Reaction Buffer, initiator approx. 0.0882 mmol per 25 mL
Protocol: Sonication can form acoustic cavitation in liquids causing the formation, growth and implosive collapse of bubbles and heat generation. Sonication was used to thermally activate thermal radical initiators to induce DAB decomposition. Thermal radical initiator screening experiments were performed using a MisonixSonicator 3000 Ultrasonic Liquid Processor. The sonicator voltage converter and horn were connected to a microtip probe. […] A DAB sample in RTD BenchMark Reaction Buffer (68.1 mg/L) was sonicated with or without the presence of a thermal radical initiator. […] The sonication mixed the sample efficiently.

[2] = Radical initiator screening in DAB UV oxidation (Aquatop 10 W in-line UV sterilizer, BenchMark Reaction Buffer); conditions: for Impact on DAB UV oxidation: 30 min UV exposure, relative to no initiator; for % Loss DAB (30 min UV): DAB 68.1 mg/L in BenchMark Reaction Buffer, initiator approx. 0.882 mmol per 250 mL, 10 W
[3] = DAB UV oxidation in in-line UV sterilizers, BenchMark IHC waste matrix; conditions: for UV irradiation time for DAB monomer to decrease to LOD: 55 W
Protocol: DAB degradation rates were determined using HPLC analysis to monitor DAB concentration change in Milli-Q® deionized (“DDI”) water, BenchMark Reaction Buffer and BenchMark IHC waste matrices. HPLC analyses were performed on a Waters Acquity Ultra Performance Liquid Chromatography (“UPLC”) instrument with photodiode array (“PDA”) detection. Standard reverse phase chromatography was used for UPLC analyses in BenchMark Reaction Buffer and DDI water matrices. Reverse phase HPLC chromatography with ion-pairing was used for DAB analysis in BenchMark waste. DAB samples were analyzed without filtration or dilution.
A SIELC PrimeSep S column 2.1×100 mm (5μ) and 2.1×10 mm guard column HPLC column was used. The eluents were 40% acetonitrile in 50 mM ammonium formate (pH=4.0). The flow rate was 0.2 mL/min, the gradient profile was an isocratic elution, the column temperature was 30° C., and the injection volume was 8 μL. The PDA detection wavelengths were 210 to 499 nm (2.4 nm resolution and 20 pts/sec). The expected retention time (in BenchMark waste) for DAB and 2-HOPyr was 2.56 min and 1.64 min, respectively.
Multiple UV irradiation flow-through systems were used to examine UV promoted DAB oxidation. A commercial in-line UV water sterilizers with preset lamp wattage and UV irradiation chamber geometry, namely, an Aquatop 10 W In-line UV sterilizer (Aquatop p/n: IL10-UV), was used to treat water up to a 211 gallon/hour flow rate. The sterilizer featured an external variable-speed micropump gear pump that controlled fluid flow rates with the assistance of an independent power supply. Samples were irradiated with active mixing, dwell mixing, or no mixing. For in-line UV sterilizers that were used without mixing pumps, inversion mixing was performed to create a uniform sample prior to sampling. Multiple UV sterilizer UV lamp wattages were examined (10, 18 and 55 W). Multiple UV irradiation sources may be installed adjacently with serial connection to each other to increase effluent exposure time.
DAB UV oxidation experiments were performed in the Aquatop 10 W in-line UV sterilizer as above with variable sample matrices (i.e. DDI water versus BenchMark IHC Waste). […] A fresh BenchMark Ultra OptiView DAB with TSA Amp IHC Waste was used for this experiment where the aqueous layer was separated from a majority of the LCS by gravity. The BenchMark IHC Waste still contained some LCS, which was finely dispersed with the BenchMark IHC waste surfactants. Both samples were irradiated by UV light for 75 minutes. The Aquatop in-line sterilizer was inverted (2×) using an air pocket to mix the matrix uniformly prior to sampling. The reaction mixture was analyzed by UPLC every 10 minutes.
DAB UV oxidation experiments were performed within in-line UV water sterilizers with different UV lamp wattages. […] The Aquatop in-line sterilizer was inverted (2×) using an air pocket to mix the matrix uniformly prior to sampling. The reaction mixture was analyzed by UPLC every 10 minutes.

[4] = DAB UV oxidation in 36 W top-down UV irradiation test bed, Reaction Buffer matrix; type: physicochemical
Protocol: As shown in FIGS. 9A-9C, a test bed was prepared to investigate top-down UV irradiation systems without direct liquid contact to the UV irradiation source (also referred to as “UV lamp light”). This test bed used two 18 W lamps to irradiate the fluid matrix from above while the liquid meandered through a predetermined path in the metal tray below to control sample exposure time. The UV light sources may be installed adjacently in parallel connection to each other (e.g. UV light array, etc.) to increase the power of the array. Alternatively, the UV light sources may be installed serially to increase exposure time. A second bottom irradiation plastic container was prepared without the pathway. UV light is absorbed as it goes through a liquid medium causing the aqueous layer furthest from the lamp to receive less UV irradiation. This test bed was used to examine liquid layer thickness and waste matrix impurities (i.e. LCS, DAB oxidation products, etc.) impact on DAB UV decomposition rates.
The 36 W top-down UV irradiation test bed without direct sample liquid contact to the UV light source was used to investigate matrix layer thickness tolerance during DAB UV irradiation (FIGS. 9A-9C). UV light is absorbed as it goes through a liquid medium causing the aqueous layer furthest from the lamp to receive less UV irradiation. A DAB sample in Reaction Buffer matrix was prepared at the expected waste concentration with approximately 20% (v/v) LCS. OptiView DAB IHC detection kit DAB chromogen, detection peroxide and inhibitor peroxide reagents were added to BenchMark Reaction Buffer matrix (143 μL each reagent per 250 mL). The 36 W top-down UV irradiation test bed bottom was filled with a specific matrix layer thickness (i.e. 10-, 20- or 30-mm thickness). The DAB sample was treated with UV irradiation without mixing and a sample was removed every 2 minutes to 10 minutes and then every 5 minutes thereafter through 30 minutes. The matrix sample was analyzed by RP UPLC.
The 36 W top-down UV irradiation test bed without direct sample liquid contact to the UV light source was used to investigate how LCS could be tolerated during DAB UV irradiation in a top-down configuration. A DAB sample in Reaction Buffer matrix was prepared at the expected waste concentration with or without approximately 20% (v/v) LCS. OptiView DAB IHC detection kit DAB chromogen, detection peroxide and inhibitor peroxide reagents were added to Reaction Buffer matrix (143 μL each reagent per 250 mL). These Reaction Buffer/LCS mixed matrix was tested with LCS not mixed, mixed by inversion 20× to form an initial bubble LCS emulsion, and vigorously mixed to form an initial opaque LCS emulsion.
The 36 W top-down UV irradiation test bed bottom was filled with a 10 mm volume layer thickness. The DAB sample was treated with UV irradiation without mixing and a sample was removed every 2 minutes to 10 minutes and then every 5 minutes thereafter through 30 minutes. The matrix sample was analyzed by RP UPLC. […] These DAB intermediates remained in solution longer when the opaque white LCS layer was present.

[5] = DAB UV oxidation in in-line UV sterilizer, DDI water matrix; type: physicochemical
Protocol: A DAB sample in DDI water (68.1 mg/L) was treated with 3% hydrogen peroxide as a radical initiator (1 mL per approx. 225 mL DAB sample). […] Mixing aided the diffusion of the homolytic hydrogen peroxide UV oxidation product (HO·), which oxidized DAB.
The sample was irradiated by UV light (60 to 90 min).

SMILES: CC(C)(N=NC(C)(C)C(=N)N)C(=N)N [2,2′-azobis(2-methylpropionatnidine)]
- Effect on DAB decomposition with sonication [1]: promoted DAB oxidation with sonication

SMILES: CC(C#N)(CCC(=O)O)N=NC(C)(C#N)CCC(=O)O (stereo not shown) [4,4′-azobis(4-cyanovaleric acid)]
- Effect on DAB decomposition with sonication [1]: promoted DAB oxidation with sonication

SMILES: Nc1ccc(C(=O)c2ccccc2)cc1 [ABP, 4-amino-benzophenone]
- Impact on DAB UV oxidation [2]: appeared to inhibit DAB oxidation
- % Loss DAB (30 min UV) [2]: 16%

SMILES: CC(C)(C#N)N=NC(C)(C)C#N [AIBN, azobisisobutyronitrile]
- Impact on DAB UV oxidation [2]: minimal impact on DAB UV oxidation
- % Loss DAB (30 min UV) [2]: 64%
- Sonication time after which no DAB monomer was detectable [1]: 25 min

SMILES: N.N.O=S(=O)(O)OOS(=O)(=O)O [APS, ammonium persulfate]
- % Loss DAB (30 min UV) [2]: 100%
- DAB loss ([2]; after 2 minutes exposure to the initiator): > 95%
- Sonication time after which no DAB monomer was detectable [1]: ≤ 5 min

SMILES: CCN(CC)c1ccc(C(=O)c2ccc(N(CC)CC)cc2)cc1 [BDABP, 4,4′-bisdiethylaminobenzophenone]
- Impact on DAB UV oxidation [2]: decreased the amount of DAB monomer found in solution
- % Loss DAB (30 min UV) [2]: 68%

SMILES: O=C(OOC(=O)c1ccccc1)c1ccccc1 [Benzoyl Peroxide, benzoyl peroxide]
- Impact on DAB UV oxidation [2]: decreased the amount of DAB monomer found in solution
- % Loss DAB (30 min UV) [2]: 72%
- Sonication time after which no DAB monomer was detectable [1]: 5 min

SMILES: Nc1ccc(-c2ccc(N)c(N)c2)cc1N [DAB, 3,3′-diaminobenzidine]
- Time to DAB monomer at or below HPLC LOD ([3]; BenchMark IHC waste, 10 W, 3 mL 3% peroxide per 250 mL): ≤ 30 min
- UV irradiation time for DAB monomer to decrease below LOD ([3]; BenchMark IHC waste, 18 W, 3% hydrogen peroxide 20 mL per approx. 1.5 L): Approximately 90 minutes
- UV irradiation time for DAB monomer to decrease to LOD ([3]; BenchMark IHC waste, 3% hydrogen peroxide 20 mL per approx. 1.5 L): 30 min
- DAB monomer still detectable ([3]; BenchMark waste, 10 W, 60 minutes UV irradiation, without hydrogen peroxide): about 21%
- UV irradiation time for DAB monomer to decrease to LOD ([3]; both BenchMark IHC waste matrices (with and without LCS emulsion), hydrogen peroxide): 30 to 40 min
- UV irradiation time to no DAB intermediates (dimers, trimers) ([4]; 10 mm matrix layer thickness): 15 to 20 min
- UV irradiation time to no DAB intermediates (dimers, trimers) ([4]; 20 mm matrix layer thickness): 25 min
- UV irradiation time to no DAB intermediates (dimers, trimers) ([4]; 30 mm matrix layer thickness, intermediates still shown): > 30 min
- UV irradiation time to no DAB intermediates ([4]; Reaction Buffer only matrix, 10 mm layer): 4 to 6 min
- UV radiation time after which no DAB monomer was detected ([4]; all aqueous layer thicknesses (10, 20, 30 mm), approx. 20% (v/v) LCS, no mixing): 2 to 4 min
- UV radiation time after which no DAB monomer was detected ([4]; all sample matrices (with or without LCS, emulsions), 10 mm layer): 2 to 4 min
- UV irradiation time to no DAB intermediates ([4]; clear LCS layered matrix, 10 mm layer): 10 to 15 min
- UV irradiation time to no DAB intermediates ([4]; other LCS emulsion samples, 10 mm layer): 20 to 25 min
- DAB monomer detected ([5]; 10 W in-line UV sterilizer, 15 minutes of static UV irradiation without any mixing): Approximately 34%
- DAB monomer still detectable ([5]; 10 W, 60 minutes UV irradiation, absence of hydrogen peroxide): Approximately 10%
- UV irradiation time after which no DAB monomer was detected ([5]; 10 W, presence of hydrogen peroxide (1 mL 3% per approx. 225 mL)): 50 min
- UV irradiation time after which DAB monomer was not detectable ([5]; 55 W UV in-line sterilizer, RP UPLC, data not shown): 20 to 30 min
- DAB monomer by UPLC after storage overnight at 10° C. ([5]; samples that received only 2 minutes UV irradiation): not detected; also recorded: No DAB monomer was detected
- DAB monomer still detectable ([2]; BenchMark Reaction Buffer, 60 minutes UV irradiation, absence of hydrogen peroxide): Approximately 38%
- DAB monomer detected ([2]; BenchMark Reaction Buffer, 60 minutes of UV irradiation, presence of hydrogen peroxide): Less than 5%

- Solubility in water: completely soluble in water
SMILES: OO [Hydrogen Peroxide, hydrogen peroxide]
- % Loss DAB (30 min UV) [2]: 96%
- Effect on DAB decomposition with sonication [1]: failed to show any substantial DAB decomposition

SMILES: CC(=O)OO [Peracetic Acid, peracetic acid]
- Impact on DAB UV oxidation [2]: decreased the amount of DAB monomer found in solution
- % Loss DAB (30 min UV) [2]: 73%
- Solubility in water: completely soluble in water

SMILES: CC1(C)CCCC(C)(C)N1[O] [TEMPO]
- Impact on DAB UV oxidation [2]: appeared to inhibit DAB oxidation
- % Loss DAB (30 min UV) [2]: 45%
